Experimental data taken from patent publication US10668039B2, “Methods for treatment of adenoid cystic carcinoma” (THE CHILDREN'S MEDICAL CENTER CORPORATION, priority 2016, dated 2020).
“Also recorded” adds a separate entry of the source.

Legend:
c-myb:GFP positive cells = test: Confocal imaging of CHT, c-myb:GFP positive cells; assay type: in vivo, zebrafish; details: 10 μM, treated 48-72 hpf, imaged at 72 hpf
Description: (§1) Confocal imaging: Double transgenic c-myb:GFP; lyz:dsRed or c-myb:GFP; mpeg1:mCherry embryos from the same clutch were treated between 48-72 hpf (n=4 biological replicates per treatment group) with 10 μM ATRA diluted in E3. Live 72 hpf embryos were embedded in 0.8% low-melting point agarose containing 0.04 mg/mL Tricaine and imaged on a Nikon Eclipe Ti microscope with 20× Plan-Apo DIC N.A. 0.75. CHT cells were counted in Z-stack image projections processed on Imaris software (Bitplane).

RARA and RARG = test: RNA-seq of short-term ACC x9 primagrafts, RARA and RARG; assay type: in vivo, human; details: 3 days, n=3, p<0.05
From the text: (§2) Primagraft experiments: For in vivo drug testing, ACC tumor fragments from host animals were implanted subcutaneously into the flank of nude mice (CRL: ATH/NU). Once tumors reached 125-250 mm3, mice were randomized to receive vehicle or drug diluted in 10:90 DMSO:10% hydroxypropyl-beta-cyclodextrin orally until controls reached a tumor volume endpoint of 1-2 cm3 (4-9 mice per group: x5M1 and x6, 4 treated vs. 9 vehicle controls; x9, 4 treated vs. 5 vehicle controls; x11, 5 treated vs. 8 vehicle controls). Mice were treated with ATRA (ACC x6 and x11: 4 mg/mL, 0.2 mL flat dose; ACC×9: 3 mg/mL, 0.2 mL flat dose) or isotretinoin (30 mg/mL, 0.2 mL flat dose). Tumor growth was monitored and mice weighed twice weekly and studies ended when final group reached tumor volume endpoint. No statistical methods were employed to determine the sample size, and no blinding of investigators was performed. After long-term tumor growth inhibition studies were completed, the ATRA treated mice stopped receiving treatment and were maintained longer as indicated to monitor tumor maintenance after treatment cessation. For long-term tumor growth inhibition studies, ACC x6, x9, and x11 models were used and primagrafts collected at the completion of the study. Short-term kinetics studies were also undertaken with ACC x9 and x5M1 primagrafts involving 3 day ATRA treatments. […]

MYB [1] = test: RNA-seq of short-term ACC x9 primagrafts, MYB; assay type: in vivo, human; details: 3 days, n=3, p<0.05
From the text: as §2

RARα = test: Western blot of ACC primagrafts, RARα; assay type: in vivo, human; details: long-term ACC x11 and short-term (3 days) ACC x5M1 primagrafts
From the text: as §2, with “performed.” for “performed. After long-term tumor growth inhibition studies were completed, the ATRA treated mice stopped receiving treatment and were maintained longer as indicated to monitor tumor maintenance after treatment cessation. For long-term tumor growth inhibition studies, ACC x6, x9, and x11 models were used and primagrafts collected at the completion of the study. Short-term kinetics studies were also undertaken with ACC x9 and x5M1 primagrafts involving 3 day ATRA treatments.”
(§3) Western blots: ACC x11 (from long-term tumor growth inhibition studies) and ACC x5M1 (from short-term kinetics studies) primagrafts were mechanically homogenized in RIPA lysis buffer (Thermo Scientific) supplemented by addition of complete protease inhibitor cocktail (Roche). Protein concentrations were determined by DC protein assay (BioRad).

H3K27ac = test: ChIP-seq of short-term ACC x9 primagrafts, H3K27ac; assay type: in vivo, human; details: 3 days
From the text: as §2, with “performed.” for “performed. After long-term tumor growth inhibition studies were completed, the ATRA treated mice stopped receiving treatment and were maintained longer as indicated to monitor tumor maintenance after treatment cessation. For long-term tumor growth inhibition studies, ACC x6, x9, and x11 models were used and primagrafts collected at the completion of the study. Short-term kinetics studies were also undertaken with ACC x9 and x5M1 primagrafts involving 3 day ATRA treatments.”
All ChIP-Seq datasets were aligned to UCSC build version hg19 of the human genome using Bowtie2 (version 2.2.1) with the following parameters: -end-to-end, —NO, -L20. […] ChIP-seq enrichment was determined as described previously in a 5 kb region (as counts per million) centered on the enriched peak regions (n=1,868) of the given MYB datasets. […]

mpx = test: In situ hybridization of whole embryos, mpx; assay type: in vivo, zebrafish; details: 10 μM, treated 48-72 hpf, fixed at 72 hpf
Description: (§4) In situ hybridization: Wildtype AB embryos from the same clutch were treated between 48-72 hpf with 10 μM retinoic acid agonists diluted in E3, fixed at 72 hpf in 4% paraformaldehyde, and processed as previously described. CHT staining in the embryos was blindly scored as high, medium, or low, and summed across 3 independent experiments as done previously. Representative images were acquired on a Nikon ZMS 18 microscope.

MYB [2] = test: Western blot of ACC primagrafts, MYB; assay type: in vivo, human; details: long-term ACC x11 and short-term (3 days) ACC x5M1 primagrafts
From the text: as §2, with “performed.” for “performed. After long-term tumor growth inhibition studies were completed, the ATRA treated mice stopped receiving treatment and were maintained longer as indicated to monitor tumor maintenance after treatment cessation. For long-term tumor growth inhibition studies, ACC x6, x9, and x11 models were used and primagrafts collected at the completion of the study. Short-term kinetics studies were also undertaken with ACC x9 and x5M1 primagrafts involving 3 day ATRA treatments.”
as §3

U937 cells = test: U937 proliferation, CellTiter-Glo; assay type: cell-based, human; details: 2 days (48 hours) of treatment, dose response
Description: Cell culture: U937 cells were grown in RPMI 1640 (Life Technologies), 10% heat inactivated FBS, and 1% Penicillin-Streptomycin (Invitrogen). CellTiter-Glo Luminescent Cell Viability Assay (Promega) was performed as per manufacturer's instructions. Cell viability was assessed at day 2.
Proliferation assays: U937 cells (ATCC) were grown in RPMI 1640 medium (Gibco) supplemented with 10% FBS and 1% Penicillin-Streptomycin (Gibco) and cultured in a 37° C. incubator with 5% CO2. U937 cells are listed in the database of commonly misidentified cell lines maintained by ICLAC, but authentic stocks are available and certified by ATCC based on DNA short-tandem repeat analysis. […] U937 cells were tested every other week for mycoplasma contamination using the MycoAlert Mycoplasma Detection Kit (Lonza) and consistently confirmed to be negative. Cells were seeded at an initial density of 1,150 cells/well (96 well plate) with chemicals at the concentrations indicated. After 48 hours, cell proliferation rates were determined using CellTiter-Glo (Promega) luminescent cell viability assay as per the manufacturer's instructions.

runx1 = test: In situ hybridization of whole embryos, runx1; assay type: in vivo, zebrafish; details: 10 μM, treated 48-72 hpf, fixed at 72 hpf
Description: as §4

[3] = tested on: human salivary adenoid cystic carcinoma cell; details: Chen et al. 1998; cell line said not to be bona fide ACC; cited from earlier work
[4] = tested on: mpeg1:mCherry positive cells; test: Confocal imaging of CHT, mpeg1:mCherry positive cells; assay type: in vivo, zebrafish; details: 10 μM, treated 48-72 hpf, imaged at 72 hpf
Description: as §1

CC(C=CC1=C(C)CCCC1(C)C)=CC=C/C(C)=C/C(=O)O [ATRA, (E)-3,7-dimethyl-9-(2,6,6-trimethyl-1-cyclo-hexen-1-yl)-2,4,6,8-nonatetraenoic acid]
number of c-myb:GFP+ cells in the CHT (c-myb:GFP positive cells): significant decrease; also recorded: decreased | increase of RARA and RARG gene levels (RARA and RARG): ~40% | decrease of MYB levels (MYB [1]): ~20% | RARα protein expression (RARα): increased | H3K27ac at translocated enhancer sites (H3K27ac): decrease | mpx expression (staining) in the CHT (mpx): no significant difference; also recorded: did not decrease staining | MYB protein expression (wildtype and fusion) (MYB [2]): decreases | U937 proliferation (CellTiter-Glo) (U937 cells): inhibited | runx1 expression (staining) in the CHT (runx1): significant decrease; also recorded: decreased staining | effect on cell proliferation in vitro [3]: anti-proliferative effects | mpeg1:mCherry+ cells in the CHT [4]: no significant difference; also recorded: no significant effect
